According to US7524964B2, “Tetrahydrothiopyrano pyrazole cannabinoid modulators” (Janssen Pharmaceutica NV, priority 2005, dated 2009):
Like-named read-outs stand apart in the source and are kept apart here.

Columns and labels:
human CB-2 receptor = target: T1, human CB-2 receptor (Homo sapiens, UniProt P34972); test: Binding assay, cannabinoid CB2 receptor ([3H]-CP-55,940 displacement); conditions: read-out: CB2 binding percent inhibition
T1 construct: expressed in transfected cells; host or cells: SK-N-MC cells, pcDNA3 CB-2 (human), semi-purified membranes
How it was run: (§1)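 Membranes from SK-N-MC cells stably expressing human CB-1 or CB-2 were incubated 90 min at 30° C with 0.2 nM [3H]-CP-55,940 in pH 7.5 Tris buffer with fatty-acid-free BSA; 10 uM WIN 55,212 defined non-specific binding. Filter-bound counts gave IC50 by linear regression, or percent inhibition at 0.2, 1 or 10 μM.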

human CB1 receptor = human CB1 receptor (Homo sapiens, UniProt P21554); test: Binding assay, cannabinoid CB1 receptor ([3H]-CP-55,940 displacement); parameters: expressed in transfected cells; host or cells: SK-N-MC cells, pcDNA3 CB-1 (human), semi-purified membranes; conditions: for inhibition at 0.2 µM: test concentration 0.2 μM (superscript a), read-out: CB1 binding percent inhibition
How it was run: as §1

[1] = test concentration 0.2 μM (superscript a)

Chain of human CB1 receptor (P21554 whole entry): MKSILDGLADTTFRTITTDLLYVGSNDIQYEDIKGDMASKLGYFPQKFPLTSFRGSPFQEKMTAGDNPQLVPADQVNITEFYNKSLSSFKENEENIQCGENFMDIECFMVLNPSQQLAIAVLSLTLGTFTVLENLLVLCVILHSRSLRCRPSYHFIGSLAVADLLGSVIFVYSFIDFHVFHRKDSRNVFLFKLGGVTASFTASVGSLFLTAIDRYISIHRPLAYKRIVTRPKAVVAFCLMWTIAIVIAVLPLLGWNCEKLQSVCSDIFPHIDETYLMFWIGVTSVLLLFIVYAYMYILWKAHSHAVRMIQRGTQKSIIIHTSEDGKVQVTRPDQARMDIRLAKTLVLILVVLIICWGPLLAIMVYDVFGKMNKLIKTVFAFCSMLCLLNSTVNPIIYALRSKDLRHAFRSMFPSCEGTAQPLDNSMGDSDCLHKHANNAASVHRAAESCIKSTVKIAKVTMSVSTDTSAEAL
T1 sequence (P34972 whole entry): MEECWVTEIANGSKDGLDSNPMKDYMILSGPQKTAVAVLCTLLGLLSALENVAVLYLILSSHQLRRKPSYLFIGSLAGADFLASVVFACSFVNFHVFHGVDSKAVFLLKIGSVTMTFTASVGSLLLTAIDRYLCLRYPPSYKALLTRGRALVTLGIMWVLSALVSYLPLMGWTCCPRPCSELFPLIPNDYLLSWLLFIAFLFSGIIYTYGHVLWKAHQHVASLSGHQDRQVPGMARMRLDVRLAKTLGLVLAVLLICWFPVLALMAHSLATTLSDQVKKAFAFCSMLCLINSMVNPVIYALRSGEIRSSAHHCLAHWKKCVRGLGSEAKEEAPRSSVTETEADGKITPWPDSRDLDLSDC

| SMILES | inhibition at 0.2 µM (human CB-2 receptor; [1]) [%] | IC50 (human CB1 receptor) [nM] | inhibition at 0.2 µM (human CB1 receptor) [%] | inhibition at 0.2 µM (human CB-2 receptor) [%] |
| --- | --- | --- | --- | --- |
| O=C(NN1CCCCC1)c1nn(-c2ccc(Cl)cc2Cl)c2c1C[S+]([O-])C/C2=C\c1ccc(F)cc1 (stereo not shown) [Cpd 79, (7Z)-1-(2,4-dichloro-phenyl)-7-(4-fluoro-benzylidene)-5-oxo-4,5,6,7-tetrahydro-1H-5λ^4-thiopyrano[4,3-c]pyrazole-3-carboxylic acid piperidin-1-ylamide] | 10 | 160 |  |  |
| O=C(NCc1ccccn1)c1nn(-c2ccc(Cl)cc2Cl)c2c1C[S+]([O-])C/C2=C\c1ccc(F)cc1 (stereo not shown) [Cpd 80, (7Z)-1-(2,4-dichloro-phenyl)-7-(4-fluoro-benzylidene)-5-oxo-4,5,6,7-tetrahydro-1H-5λ^4-thiopyrano[4,3-c]pyrazole-3-carboxylic acid (pyridin-2-ylmethyl)-amide] | 2 |  | 21 |  |
| O=C(NN1CCCCC1)c1nn(-c2ccc(Cl)cc2Cl)c2c1CS(=O)(=O)C/C2=C\c1ccc(F)cc1 [Cpd 81, (7Z)-1-(2,4-dichloro-phenyl)-7-(4-fluoro-benzylidene)-5,5-dioxo-4,5,6,7-tetrahydro-1H-5λ^6-thiopyrano[4,3-c]pyrazole-3-carboxylic acid piperidin-1-ylamide] | 24 | 32 |  |  |
| C[C@@H](NC(=O)c1c2c(nn1-c1ccc(Cl)cc1Cl)/C(=C/c1ccc(F)cc1)CS(=O)(=O)C2)c1ccccc1 [Cpd 82, (7Z)-2-(2,4-dichloro-phenyl)-7-(4-fluoro-benzylidene)-5,5-dioxo-4,5,6,7-tetrahydro-2H-5λ^6-thiopyrano[4,3-c]pyrazole-3-carboxylic acid [(1R)-1-phenyl-ethyl]-amide] | 19 | 48 |  |  |
| O=C(NN1CCCCC1)c1c2c(nn1-c1ccc(Cl)cc1Cl)/C(=C/c1ccc(F)cc1)CS(=O)(=O)C2 [Cpd 83, (7Z)-2-(2,4-dichloro-phenyl)-7-(4-fluoro-benzylidene)-5,5-dioxo-4,5,6,7-tetrahydro-2H-5λ^6-thiopyrano[4,3-c]pyrazole-3-carboxylic acid piperidin-1-ylamide] | 17 | 27 |  |  |
| C[C@@H](NC(=O)c1c2c(nn1-c1ccc(Cl)cc1Cl)/C(=C/c1ccc(F)cc1)CS(=O)(=O)C2)C1CCCCC1 [Cpd 84, (7Z)-2-(2,4-dichloro-phenyl)-7-(4-fluoro-benzylidene)-5,5-dioxo-4,5,6,7-tetrahydro-2H-5λ^6-thiopyrano[4,3-c]pyrazole-3-carboxylic acid [(1R)-1-cyclohexyl-ethyl]-amide] | 17 | 2 |  |  |
| C[C@H](NC(=O)c1c2c(nn1-c1ccc(Cl)cc1Cl)/C(=C/c1ccc(F)cc1)CS(=O)(=O)C2)C1CCCCC1 [Cpd 85, (7Z)-2-(2,4-dichloro-phenyl)-7-(4-fluoro-benzylidene)-5,5-dioxo-4,5,6,7-tetrahydro-2H-5λ^6-thiopyrano[4,3-c]pyrazole-3-carboxylic acid [(1S)-1-cyclohexyl-ethyl]-amide] | 20 | 35 |  |  |
| C[C@H](NC(=O)c1c2c(nn1-c1ccc(Cl)cc1Cl)/C(=C/c1ccc(F)cc1)CS(=O)(=O)C2)c1ccccc1 [Cpd 86, (7Z)-2-(2,4-dichloro-phenyl)-7-(4-fluoro-benzylidene)-5,5-dioxo-4,5,6,7-tetrahydro-2H-5λ^6-thiopyrano[4,3-c]pyrazole-3-carboxylic acid [(1S)-1-phenyl-ethyl]-amide] | 14 | 21 |  |  |
| O=C(NN1CC2CCCC2C1)c1c2c(nn1-c1ccc(Cl)cc1Cl)/C(=C/c1ccc(F)cc1)CS(=O)(=O)C2 (stereo not shown) [Cpd 87, (7Z)-2-(2,4-dichloro-phenyl)-7-(4-fluoro-benzylidene)-5,5-dioxo-4,5,6,7-tetrahydro-2H-5λ^6-thiopyrano[4,3-c]pyrazole-3-carboxylic acid (hexahydro-cyclopenta[c]pyrrol-2-yl)-amide] | 4 | 18 |  |  |
| O=C(NN1CCCCC1)c1c2c(nn1-c1ccc(Cl)cc1Cl)/C(=C/c1ccc(F)cc1)CSC2 [Cpd 88, (7Z)-2-(2,4-dichloro-phenyl)-7-(4-fluoro-benzylidene)-2,4,6,7-tetrahydro-thiopyrano[4,3-c]pyrazole-3-carboxylic acid piperidin-1-ylamide] | 9 |  | 46 |  |
| C[C@@H](NC(=O)c1c2c(nn1-c1ccc(Cl)cc1Cl)/C(=C/c1ccc(F)cc1)CSC2)C1CCCCC1 [Cpd 89, (7Z)-2-(2,4-dichloro-phenyl)-7-(4-fluoro-benzylidene)-2,4,6,7-tetrahydro-thiopyrano[4,3-c]pyrazole-3-carboxylic acid [(1R)-1-cyclohexyl-ethyl]-amide] | 10 | 74 |  |  |
| C[C@H](NC(=O)c1c2c(nn1-c1ccc(Cl)cc1Cl)/C(=C/c1ccc(F)cc1)CSC2)C1CCCCC1 [Cpd 90, (7Z)-2-(2,4-dichloro-phenyl)-7-(4-fluoro-benzylidene)-2,4,6,7-tetrahydro-thiopyrano[4,3-c]pyrazole-3-carboxylic acid [(1S)-1-cyclohexyl-ethyl]amide] | 18 |  | 31 |  |
| C[C@H](NC(=O)c1c2c(nn1-c1ccc(Cl)cc1Cl)/C(=C/c1ccc(F)cc1)CSC2)c1ccccc1 [Cpd 91, (7Z)-2-(2,4-dichloro-phenyl)-7-(4-fluoro-benzylidene)-2,4,6,7-tetrahydro-thiopyrano[4,3-c]pyrazole-3-carboxylic acid [(1S)-1-phenyl-ethyl]-amide] | 14 |  | 38 |  |
| O=C(NN1CC2CCCC2C1)c1c2c(nn1-c1ccc(Cl)cc1Cl)/C(=C/c1ccc(F)cc1)CSC2 (stereo not shown) [Cpd 92, (7Z)-2-(2,4-dichloro-phenyl)-7-(4-fluoro-benzylidene)-2,4,6,7-tetrahydro-thiopyrano[4,3-c]pyrazole-3-carboxylic acid (hexahydro-cyclopenta[c]pyrrol-2-yl)-amide] | 8 |  | 47 |  |
| O=C(NN1CCCCC1)c1nn(-c2ccc(Cl)cc2)c2c1CSC/C2=C\c1ccc(F)cc1 [Cpd 93, (7Z)-1-(4-chloro-phenyl)-7-(4-fluoro-benzylidene)-1,4,6,7-tetrahydro-thiopyrano[4,3-c]pyrazole-3-carboxylic acid piperidin-1-ylamide] | 26 | 36 |  |  |
| C[C@@H](NC(=O)c1nn(-c2ccc(Cl)cc2)c2c1CSC/C2=C\c1ccc(F)cc1)c1ccccc1 [Cpd 94, (7Z)-1-(4-chloro-phenyl)-7-(4-fluoro-benzylidene)-1,4,6,7-tetrahydro-thiopyrano[4,3-c]pyrazole-3-carboxylic acid [(1R)-1-phenyl-ethyl]-amide] |  | 11 |  | 22 |
| C[C@@H](NC(=O)c1nn(-c2ccc(Cl)cc2)c2c1CS(=O)(=O)C/C2=C\c1ccc(F)cc1)c1ccccc1 [Cpd 95, (7Z)-1-(4-chloro-phenyl)-7-(4-fluoro-benzylidene)-5,5-dioxo-4,5,6,7-tetrahydro-1H-5λ^6-thiopyrano[4,3-c]pyrazole-3-carboxylic acid [(1R)-1-phenyl-ethyl]-amide] |  | 9 |  | 15 |
| O=C(NN1CCCCC1)c1nn(-c2ccc(Cl)cc2)c2c1C[S+]([O-])C/C2=C\c1ccc(F)cc1 (stereo not shown) [Cpd 96, (7Z)-1-(4-chloro-phenyl)-7-(4-fluoro-benzylidene)-5-oxo-4,5,6,7-tetrahydro-1H-5λ^4-thiopyrano[4,3-c]pyrazole-3-carboxylic acid piperidin-1-ylamide] | 9 |  | 43 |  |
| O=C(NN1CC2CCCC2C1)c1nn(-c2ccc(Cl)cc2)c2c1CS(=O)(=O)C/C2=C\c1ccc(F)cc1 (stereo not shown) [Cpd 97, (7Z)-1-(4-chloro-phenyl)-7-(4-fluoro-benzylidene)-5,5-dioxo-4,5,6,7-tetrahydro-1H-5λ^6-thiopyrano[4,3-c]pyrazole-3-carboxylic acid (hexahydro-cyclopenta[c]pyrrol-2-yl)-amide] | 8 | 68 |  |  |
| O=C(c1nn(-c2ccc(Cl)cc2)c2c1CS(=O)(=O)C/C2=C\c1ccc(F)cc1)N1CCCCC1 [Cpd 98, (7Z)-[1-(4-chloro-phenyl)-7-(4-fluoro-benzylidene)-5,5-dioxo-4,5,6,7-tetrahydro-1H-5λ^6-thiopyrano[4,3-c]pyrazol-3-yl]-piperidin-1-yl-methanone] | 14 |  | 51 |  |
| O=C(NN1CCCCC1)c1nn(-c2ccc(Cl)cc2)c2c1CS(=O)(=O)C/C2=C\c1ccc(F)cc1 [Cpd 99, (7Z)-1-(4-chloro-phenyl)-7-(4-fluoro-benzylidene)-5,5-dioxo-4,5,6,7-tetrahydro-1H-5λ^6-thiopyrano[4,3-c]pyrazole-3-carboxylic acid piperidin-1-ylamide] | 12 |  | 66 |  |
| CN(NC(=O)c1nn(-c2ccc(Cl)cc2)c2c1CS(=O)(=O)C/C2=C\c1ccc(F)cc1)c1ccccc1 [Cpd 100, (7Z)-1-(4-chloro-phenyl)-7-(4-fluoro-benzylidene)-5,5-dioxo-4,5,6,7-tetrahydro-1H-5λ^6-thiopyrano[4,3-c]pyrazole-3-carboxylic acid N′-methyl-N′-phenyl-hydrazide] |  | 25 |  | 9 |
| O=C(c1nn(-c2ccc(Cl)cc2Cl)c2c1CS(=O)(=O)C/C2=C\c1ccc(F)cc1)N1CCCCC1 [Cpd 101, (7Z)-[1-(2,4-dichloro-phenyl)-7-(4-fluoro-benzylidene)-5,5-dioxo-4,5,6,7-tetrahydro-1H-5λ^6-thiopyrano[4,3-c]pyrazol-3-yl]-piperidin-1-yl-methanone] | 24 |  | 61 |  |
